Data: patent US9079913B2, “Spiro-oxindole MDM2 antagonists” (The Regents of the University of Michigan, priority 2009, dated 2015)
Several values for one entry are separate records, joined by “and”; a condition that tells them apart may be missing. Identical values can stand only once.

Tests used:
[1] = test system: LnCAP human xenograft tumors; settings: mice bearing LnCAP xenograft, oral 200-300 mg/kg daily or twice a day, 2 weeks; cited from earlier work
[2] = Microsomal stability study, negative control incubation; assay type: in vitro ADME
[3] = Pharmacokinetic studies in Cynomolgus monkeys; assay type: in vivo; settings: for AUC(0-t): animals and MEAN
[4] = Metabolites in rat plasma; assay type: in vivo; settings: rats, MI-219 i.v. 5 mg/kg
Protocol: Plasma was harvested by centrifuging the blood at 13000 rpm for 5 min at 4° C. and stored frozen at −80±10° C. until analysis.
Based on the similarities and difference among their mass spectra, the possible fragmentation pathways of protonated MI-219 and several lead compounds were proposed. Three characteristic product ions were selected to generate 240 ion channels for MRM screening by using Metabolite ID software (Applied Biosystems), including 40 common biotransformation processes. To search all the metabolites, two other scan modes, EMS full scan and precursor scan were also conducted. Only the components detected in the sample and absent in all the control samples were regarded as possible metabolites. To identify the possible metabolites, both the sample and controls were injected on the LC-MS for EPI and MS^3 scans to obtain their MS^2 and MS^3 spectra.

[5] = In vitro microsomal stability, rat; assay type: in vitro ADME; settings: for Microsomal stability, % remaining: Rat microsomes
[6] = male Cynomolgus monkeys, IV (10 mg/kg)
[7] = male Cynomolgus monkeys, IV (10 mg/kg), mean
[8] = male Cynomolgus monkeys, Oral (50 mg/kg)
[9] = male Cynomolgus monkeys, Oral (50 mg/kg), mean

MI-219
tumor growth inhibition (in words) [1]: effective tumor growth inhibition
Microsomal stability, % remaining ([2]; 0 min): 100.00%
Microsomal stability, % remaining ([2]; 5 min): 102.63%
Microsomal stability, % remaining ([2]; 10 min): 105.25%
Microsomal stability, % remaining ([2]; 15 min): 109.19%
Microsomal stability, % remaining ([2]; 30 min): 111.07%
Microsomal stability, % remaining ([2]; 45 min): 104.13%
Microsomal stability, % remaining ([2]; 60 min): 109.01%
oral bioavailability in monkeys (in words) ([3]; Cynomolgus Monkeys): orally bioavailable
Plasma Concentration ([3]; male Cynomolgus monkeys, IV 10 mg/kg, time point 0.083, animals and Mean): 15043.60 ng/mL and 18669.25 ng/mL
Plasma Concentration ([3]; male Cynomolgus monkeys, IV 10 mg/kg, time point 0.083, animals and Mean, mean): 16856.43 ng/mL
Plasma Concentration ([3]; male Cynomolgus monkeys, IV 10 mg/kg, time point 0.1): 18416.30 ng/mL
Plasma Concentration ([3]; male Cynomolgus monkeys, IV 10 mg/kg, time point 0.25): 4144.21 ng/mL and 4818.06 ng/mL and 6877.15 ng/mL
Plasma Concentration ([3]; male Cynomolgus monkeys, IV 10 mg/kg, time point 0.25, mean): 5279.81 ng/mL
Plasma Concentration ([3]; male Cynomolgus monkeys, IV 10 mg/kg, time point 0.5): 2188.67 ng/mL and 3577.55 ng/mL and 3536.46 ng/mL
Plasma Concentration ([3]; male Cynomolgus monkeys, IV 10 mg/kg, time point 0.5, mean): 3100.89 ng/mL
Plasma Concentration ([3]; male Cynomolgus monkeys, IV 10 mg/kg, time point 1): 1564.10 ng/mL and 2277.17 ng/mL and 2483.63 ng/mL
Plasma Concentration ([3]; male Cynomolgus monkeys, IV 10 mg/kg, time point 1, mean): 2108.30 ng/mL
Plasma Concentration ([3]; male Cynomolgus monkeys, IV 10 mg/kg, time point 2): 985.23 ng/mL and 1277.08 ng/mL and 1539.44 ng/mL
Plasma Concentration ([3]; male Cynomolgus monkeys, IV 10 mg/kg, time point 2, mean): 1267.25 ng/mL
Plasma Concentration ([3]; male Cynomolgus monkeys, IV 10 mg/kg, time point 3): 1230.40 ng/mL and 691.83 ng/mL and 834.00 ng/mL
Plasma Concentration ([3]; male Cynomolgus monkeys, IV 10 mg/kg, time point 3, mean): 918.74 ng/mL
Plasma Concentration ([3]; male Cynomolgus monkeys, IV 10 mg/kg, time point 4): 348.97 ng/mL and 582.63 ng/mL and 562.45 ng/mL
Plasma Concentration ([3]; male Cynomolgus monkeys, IV 10 mg/kg, time point 4, mean): 498.02 ng/mL
Plasma Concentration ([3]; male Cynomolgus monkeys, IV 10 mg/kg, time point 6): 246.12 ng/mL and 211.39 ng/mL and 324.99 ng/mL
Plasma Concentration ([3]; male Cynomolgus monkeys, IV 10 mg/kg, time point 6, mean): 260.83 ng/mL
Plasma Concentration ([3]; male Cynomolgus monkeys, IV 10 mg/kg, time point 8): 180.91 ng/mL and 115.94 ng/mL and 202.16 ng/mL
Plasma Concentration ([3]; male Cynomolgus monkeys, IV 10 mg/kg, time point 8, mean): 166.34 ng/mL
Plasma Concentration ([3]; male Cynomolgus monkeys, IV 10 mg/kg, time point 24): 5.91 ng/mL and 8.00 ng/mL and 8.34 ng/mL
Plasma Concentration ([3]; male Cynomolgus monkeys, IV 10 mg/kg, time point 24, mean): 7.42 ng/mL
AUC(0-∞) [3, 6]: 11647.87 ng·h/mL and 13703.99 ng·h/mL and 10300.28 ng·h/mL
CLz [3, 6]: 14.3 mL/min/kg and 12.2 mL/min/kg and 16.2 mL/min/kg
Cmax [3, 6]: 18669.25 ng/mL and 18416.30 ng/mL and 15043.60 ng/mL
MRT(0-∞) [3, 6]: 2.12 h and 2.44 h and 2.68 h
T1/2 [3, 6]: 3.25 h and 3.43 h and 3.38 h
Vz [3, 6]: 4.03 L/kg and 3.62 L/kg and 4.73 L/kg
AUC(0-t) [3, 6]: 11610.30 ng·h/mL and 13662.84 ng·h/mL and 10271.39 ng·h/mL
AUC(0-t) [3, 7]: 11848.18 ng·h/mL
AUC(0-∞) [3, 7]: 11884.05 ng·h/mL
CLz [3, 7]: 14.2 mL/min/kg
Cmax [3, 7]: 17376.38 ng/mL
MRT(0-∞) [3, 7]: 2.41 h
T1/2 [3, 7]: 3.35 h
Vz [3, 7]: 4.12 L/kg
MRT(0-∞) [3, 8]: 6.25 h and 6.38 h and 5.57 h
T1/2 [3, 8]: 3.03 h and 2.52 h and 3.72 h
Tmax [3, 8]: 4.00 h and 3.00 h and 3.33 h
MRT(0-∞) [3, 9]: 6.06 h
T1/2 [3, 9]: 3.09 h
Plasma Concentration ([3]; male Cynomolgus monkeys, PO 50 mg/kg, time point 1): 192.53 ng/mL and 186.66 ng/mL and 241.02 ng/mL
Plasma Concentration ([3]; male Cynomolgus monkeys, PO 50 mg/kg, time point 1, mean): 206.74 ng/mL
elimination rate from rat plasma (in words) [4]: similar
Microsomal stability, % remaining ([5]; 0 min): 100.00%
Microsomal stability, % remaining ([5]; 5 min): 58.19%
Microsomal stability, % remaining ([5]; 10 min): 40.59%
Microsomal stability, % remaining ([5]; 15 min): 28.11%
Microsomal stability, % remaining ([5]; 30 min): 18.61%
Microsomal stability, % remaining ([5]; 45 min): 18.42%
Microsomal stability, % remaining ([5]; 60 min): 18.38%
% of compound remaining when incubated in rat liver microsomes ([5]; Table 16, 0 min): 100%
% of compound remaining when incubated in rat liver microsomes ([5]; Table 16, 4 min): 76.6%
% of compound remaining when incubated in rat liver microsomes ([5]; Table 16, 6 min): 64.3%
% of compound remaining when incubated in rat liver microsomes ([5]; Table 16, 10 min): 57.3%
% of compound remaining when incubated in rat liver microsomes ([5]; Table 16, 15 min): 51.9%
% of compound remaining when incubated in rat liver microsomes ([5]; Table 16, 30 min): 49.3%
% of compound remaining when incubated in rat liver microsomes ([5]; Table 17, 0 min): 100%
% of compound remaining when incubated in rat liver microsomes ([5]; Table 17, 4 min): 76.6%
% of compound remaining when incubated in rat liver microsomes ([5]; Table 17, 6 min): 64.3%
% of compound remaining when incubated in rat liver microsomes ([5]; Table 17, 10 min): 57.3%
